Target: human mGlu5a receptor (Homo sapiens (Human), UniProt P41594)
Assay: Intracellular Ca2+ mobilization assay (mGlu5 PAM)
Assay type: cell-based
Conditions: for EC50: HEK-293 cells stably transfected with human mGlu5a, L-glutamate added at EC20 after pre-incubation with test compound, read-out: EC50 (nM) mGlu5PAM; for Emax: maximal response in % of the maximal stimulatory effect obtained with saturating concentrations of L-glutamate, read-out: Eff. (%)
Method: A monoclonal HEK-293 cell line stably transfected with a cDNA encoding for the human mGlu5a receptor was generated; for the work with mGlu5 Positive Allosteric Modulators (PAMs), a cell line with low receptor expression levels and low constitutive receptor activity was selected to allow the differentiation of agonistic versus PAM activity. Cells were cultured according to standard protocols (Freshney, 2000) in Dulbecco's Modified Eagle Medium with high glucose supplemented with 1 mM glutamine, 10% (vol/vol) heat-inactivated bovine calf serum, Penicillin/Streptomycin, 50 μg/ml hygromycin and 15 μg/ml blasticidin (all cell culture reagents and antibiotics from Invitrogen, Basel, Switzerland).
About 24 hrs before an experiment, 5×10^4 cells/well were seeded in poly-D-lysine coated, black/clear-bottomed 96-well plates. The cells were loaded with 2.5 μM Fluo-4AM in loading buffer (1×HBSS, 20 mM HEPES) for 1 hr at 37° C. and washed five times with loading buffer. The cells were transferred into a Functional Drug Screening System 7000 (Hamamatsu, Paris, France), and 11 half logarithmic serial dilutions of test compound at 37° C. were added and the cells were incubated for 10-30 min. with on-line recording of fluorescence. Following this pre-incubation step, the agonist L-glutamate was added to the cells at a concentration corresponding to EC20 (typically around 80 μM) with on-line recording of fluorescence; in order to account for day-to-day variations in the responsiveness of cells, the EC20 of glutamate was determined immediately ahead of each experiment by recording of a full dose-response curve of glutamate.
Responses were measured as peak increase in fluorescence minus basal (i.e. fluorescence without addition of L-glutamate), normalized to the maximal stimulatory effect obtained with saturating concentrations of L-glutamate. Graphs were plotted with the % maximal stimulatory using XLfit, a curve fitting program that iteratively plots the data using Levenburg Marquardt algorithm. The single site competition analysis equation used was y=A+((B−A)/(1+((x/C)D))), where y is the % maximal stimulatory effect, A is the minimum y, B is the maximum y, C is the EC50, x is the log10 of the concentration of the competing compound and D is the slope of the curve (the Hill Coefficient). From these curves the EC50 (concentration at which half maximal stimulation was achieved), the Hill coefficient as well as the maximal response in % of the maximal stimulatory effect obtained with saturating concentrations of L-glutamate were calculated.
A depression of the signal observed after addition of the EC20 concentration of L-glutamate was indicative of an inhibitory activity of the test compound.

Sequence of human mGlu5a receptor (P41594 other isoform, or with tags, fused parts or gaps): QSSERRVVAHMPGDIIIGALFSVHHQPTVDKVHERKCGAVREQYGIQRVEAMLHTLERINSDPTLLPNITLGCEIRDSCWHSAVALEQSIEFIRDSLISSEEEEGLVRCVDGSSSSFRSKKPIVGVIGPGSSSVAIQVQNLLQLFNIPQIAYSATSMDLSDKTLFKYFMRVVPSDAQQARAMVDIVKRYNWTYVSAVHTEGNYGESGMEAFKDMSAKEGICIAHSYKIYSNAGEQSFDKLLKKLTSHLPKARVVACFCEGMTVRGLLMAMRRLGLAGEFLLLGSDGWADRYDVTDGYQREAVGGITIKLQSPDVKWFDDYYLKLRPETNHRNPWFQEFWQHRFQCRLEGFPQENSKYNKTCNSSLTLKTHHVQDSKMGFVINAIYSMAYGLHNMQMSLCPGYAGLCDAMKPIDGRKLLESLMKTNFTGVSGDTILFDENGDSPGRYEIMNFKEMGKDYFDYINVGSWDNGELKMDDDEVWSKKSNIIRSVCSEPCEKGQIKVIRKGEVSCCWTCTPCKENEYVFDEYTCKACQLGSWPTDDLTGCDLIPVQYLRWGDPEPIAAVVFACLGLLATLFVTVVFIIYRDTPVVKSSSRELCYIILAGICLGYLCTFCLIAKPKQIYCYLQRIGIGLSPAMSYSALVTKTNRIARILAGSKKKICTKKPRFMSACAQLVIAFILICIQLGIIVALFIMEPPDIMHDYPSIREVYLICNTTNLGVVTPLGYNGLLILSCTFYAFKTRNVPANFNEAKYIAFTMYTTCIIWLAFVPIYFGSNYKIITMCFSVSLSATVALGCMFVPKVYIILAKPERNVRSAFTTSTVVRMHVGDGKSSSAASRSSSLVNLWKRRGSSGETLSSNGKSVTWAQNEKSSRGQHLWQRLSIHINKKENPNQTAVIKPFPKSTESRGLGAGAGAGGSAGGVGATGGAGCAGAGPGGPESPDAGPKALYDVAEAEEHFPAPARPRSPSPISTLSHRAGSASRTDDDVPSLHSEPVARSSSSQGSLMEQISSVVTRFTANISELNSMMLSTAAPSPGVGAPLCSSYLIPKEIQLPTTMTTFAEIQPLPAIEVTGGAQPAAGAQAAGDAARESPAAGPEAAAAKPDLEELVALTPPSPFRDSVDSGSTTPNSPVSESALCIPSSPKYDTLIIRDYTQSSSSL

| SMILES | EC50 [nM] | Emax [%] |
| --- | --- | --- |
| CO[C@@H]1C(=O)N(c2ncc(C#Cc3cccc(F)c3)cn2)CC1(C)C (single isomer, unassigned) [Example 131, (R or S)-1-[5-(3-Fluoro-phenylethynyl)-pyrimidin-2-yl]-3-methoxy-4,4-dimethyl-pyrrolidin-2-one] | 35 | 48 |
| CO[C@H]1C(=O)N(c2ncc(C#Cc3cccc(F)c3)cn2)CC1(C)C (single isomer, unassigned) [Example 132, (S or R)-1-[5-(3-Fluoro-phenylethynyl)-pyrimidin-2-yl]-3-methoxy-4,4-dimethyl-pyrrolidin-2-one] | 21 | 69 |
| CO[C@@H]1C(=O)N(c2ncc(C#Cc3cc(F)ccc3F)cn2)CC1(C)C (single isomer, unassigned) [Example 133, (R or S)-1-[5-(2,5-Difluoro-phenylethynyl)-pyrimidin-2-yl]-3-methoxy-4,4-dimethyl-pyrrolidin-2-one] | 57 | 49 |
| CC1(C)CN(c2ncc(C#Cc3ccccc3)cc2F)C(=O)O1 [Example 1, 3-(3-Fluoro-5-phenylethynyl-pyridin-2-yl)-5,5-dimethyl-oxazolidin-2-one] | 30 | 68 |
| CC1(C)CN(c2ccc(C#Cc3ccccc3)cn2)C(=O)O1 [Example 5, 5,5-Dimethyl-3-(5-phenylethynyl-pyridin-2-yl)-oxazolidin-2-one] | 7 | 77 |
| CC1(C)CN(c2ccc(C#Cc3cccc(F)c3)cn2)C(=O)O1 [Example 6, 3-[5-(3-Fluoro-phenylethynyl)-pyridin-2-yl]-5,5-dimethyl-oxazolidin-2-one] | 9 | 46 |
| CC1(C)CN(c2ccc(C#Cc3cccnc3)cn2)C(=O)O1 [Example 7, 5,5-Dimethyl-3-(5-pyridin-3-ylethynyl-pyridin-2-yl)-oxazolidin-2-one] | 33 | 39 |
| O=C1OC2(CC2)CN1c1ccc(C#Cc2ccccc2)cn1 [Example 9, 6-(5-Phenylethynyl-pyridin-2-yl)-4-oxa-6-aza-spiro[2.4]heptan-5-one] | 15 | 83 |
| O=C1OC2(CCC2)CN1c1ccc(C#Cc2ccccc2)cn1 [Example 10, 7-(5-Phenylethynyl-pyridin-2-yl)-5-oxa-7-aza-spiro[3.4]octan-6-one] | 25 | 109 |
| O=C1OC2(CCCC2)CN1c1ccc(C#Cc2ccccc2)cn1 [Example 11, 3-(5-Phenylethynyl-pyridin-2-yl)-1-oxa-3-aza-spiro[4.4]nonan-2-one] | 39 | 52 |
| O=C1OC2(CCCCC2)CN1c1ccc(C#Cc2ccccc2)cn1 [Example 12, 3-(5-Phenylethynyl-pyridin-2-yl)-1-oxa-3-aza-spiro[4.5]decan-2-one] | 67 | 80 |
| CC1(C)CC(=O)N(c2ccc(C#Cc3ccccc3)cn2)C1 [Example 13, 4,4-Dimethyl-1-(5-phenylethynyl-pyridin-2-yl)-pyrrolidin-2-one] | 37 | 129 |
| CC1(C)CN(c2ccc(C#Cc3ccccc3)cn2)C(=O)N1 [Example 15, 4,4-Dimethyl-1-(5-phenylethynyl-pyridin-2-yl)-imidazolidin-2-one] | 130 | 101 |
| CN1C(=O)N(c2ccc(C#Cc3ccccc3)cn2)CC1(C)C [Example 16, 3,4,4-Trimethyl-1-(5-phenylethynyl-pyridin-2-yl)-imidazolidin-2-one] | 35 | 103 |
| CCN1C(=O)N(c2ccc(C#Cc3ccccc3)cn2)CC1(C)C [Example 17, 3-Ethyl-4,4-dimethyl-1-(5-phenylethynyl-pyridin-2-yl)-imidazolidin-2-one] | 66 | 103 |
| CC(C)N1C(=O)N(c2ccc(C#Cc3ccccc3)cn2)CC1(C)C [Example 18, 3-Isopropyl-4,4-dimethyl-1-(5-phenylethynyl-pyridin-2-yl)-imidazolidin-2-one] | 39 | 133 |
| CC1(C)CC(=O)N(c2ncc(C#Cc3ccccc3)cc2F)C1 [Example 21, 1-(3-Fluoro-5-phenylethynyl-pyridin-2-yl)-4,4-dimethyl-pyrrolidin-2-one] | 30 | 128 |

| SMILES | EC50 [nM] | Emax [%] |
| --- | --- | --- |
| CC1(C)CNC(=O)N(c2ccc(C#Cc3ccccc3)cn2)C1 [Example 25, 5,5-Dimethyl-1-(5-phenylethynyl-pyridin-2-yl)-tetrahydro-pyrimidin-2-one] | 69 | 148 |
| CN1CC(C)(C)CN(c2ccc(C#Cc3ccccc3)cn2)C1=O [Example 26, 1,5,5-Trimethyl-3-(5-phenylethynyl-pyridin-2-yl)-tetrahydro-pyrimidin-2-one] |  | 131 |
| CC1(C)OC(=O)N(c2ccc(C#Cc3ccccc3)cn2)C1(C)C [Example 28, 4,4,5,5-Tetramethyl-3-(5-phenylethynyl-pyridin-2-yl)-oxazolidin-2-one] | 48 | 31 |
| CC1(C)CN(c2ccc(C#Cc3cncc(F)c3)cn2)C(=O)O1 [Example 29, 3-[5-(5-Fluoro-pyridin-3-ylethynyl)-pyridin-2-yl]-5,5-dimethyl-oxazolidin-2-one] | 15 | 45 |
| CC1(C)CN(c2ccc(C#Cc3cncnc3)cn2)C(=O)O1 [Example 30, 5,5-Dimethyl-3-(5-pyrimidin-5-ylethynyl-pyridin-2-yl)-oxazolidin-2-one] | 80 | 43 |
| Cn1cc(C#Cc2ccc(N3CC(C)(C)OC3=O)nc2)cn1 [Example 31, 5,5-Dimethyl-3-[5-(1-methyl-1H-pyrazol-4-ylethynyl)-pyridin-2-yl]-oxazolidin-2-one] | 26 | 55 |
| CC1(C)CN(c2ccc(C#Cc3ccc(F)cc3)cn2)C(=O)O1 [Example 32, 3-[5-(4-Fluoro-phenylethynyl)-pyridin-2-yl]-5,5-dimethyl-oxazolidin-2-one] | 19 | 60 |
| CC1(C)CN(c2ccc(C#Cc3ccc(F)c(F)c3)cn2)C(=O)O1 [Example 33, 3-[5-(3,4-Difluoro-phenylethynyl)-pyridin-2-yl]-5,5-dimethyl-oxazolidin-2-one] | 32 | 44 |
| CC1(C)CN(c2ccc(C#Cc3cc(F)ccc3F)cn2)C(=O)O1 [Example 34, 3-[5-(2,5-Difluoro-phenylethynyl)-pyridin-2-yl]-5,5-dimethyl-oxazolidin-2-one] | 11 | 38 |
| CC1(C)CN(c2ccc(C#Cc3ccc(F)nc3)cn2)C(=O)O1 [Example 35, 3-[5-(6-Fluoro-pyridin-3-ylethynyl)-pyridin-2-yl]-5,5-dimethyl-oxazolidin-2-one] | 54 | 52 |
| O=C1OC2(CC2)CN1c1ccc(C#Cc2cccnc2)cn1 [Example 36, 6-(5-Pyridin-3-ylethynyl-pyridin-2-yl)-4-oxa-6-aza-spiro[2.4]heptan-5-one] | 58 | 80 |
| CC1(C)CC(=O)N(c2ccc(C#Cc3cncc(F)c3)cn2)C1 [Example 37, 1-[5-(5-Fluoro-pyridin-3-ylethynyl)-pyridin-2-yl]-4,4-dimethyl-pyrrolidin-2-one] | 22 | 96 |
| CC1(C)CC(=O)N(c2ccc(C#Cc3cccnc3)cn2)C1 [Example 38, 4,4-Dimethyl-1-(5-pyridin-3-ylethynyl-pyridin-2-yl)-pyrrolidin-2-one] | 33 | 147 |
| CC1(C)CC(=O)N(c2ccc(C#Cc3cncc(Cl)c3)cn2)C1 [Example 39, 1-[5-(5-Chloro-pyridin-3-ylethynyl)-pyridin-2-yl]-4,4-dimethyl-pyrrolidin-2-one] | 48 | 98 |
| CC1(C)CC(=O)N(c2ccc(C#Cc3cccc(F)c3)cn2)C1 [Example 40, 1-[5-(3-Fluoro-phenylethynyl)-pyridin-2-yl]-4,4-dimethyl-pyrrolidin-2-one] | 15 | 100 |
| Cc1cc(C#Cc2ccccc2)cnc1N1CC(C)(C)CC1=O [Example 41, 4,4-Dimethyl-1-(3-methyl-5-phenylethynyl-pyridin-2-yl)-pyrrolidin-2-one] | 58 | 89 |
| CC1(C)CCC(=O)N(c2ccc(C#Cc3ccccc3)cn2)C1 [Example 42, 5,5-Dimethyl-5′-phenylethynyl-3,4,5,6-tetrahydro-[1,2′]bipyridinyl-2-one] | 16 | 139 |

Reference: US9315498B2, “Arlethynyl derivatives” (Hoffmann-La Roche Inc., priority 2010, dated 2016)
